These results are taken from patent US20090017105A1, “PROLIPOSOMAL AND LIPOSOMAL COMPOSITIONS OF POORLY WATER SOLUBLE DRUGS” (priority 2007, published 2009).

The conditions of data set [1]: cited from earlier work; for entrapment in the liposomes: Mayhew et al., U.S. Pat. No. 5,939,567 and 6,118,011.
For data set [2] the following is noted: Ogawa et al., U.S. Pat. No. 5,094,854, cited from earlier work.
The test system of data set [3] is PAI. The data set can be described thus: In vitro cytotoxicity, 72 hour MIT assay. The format is cell-based. Particulars: Homo sapiens, Ovary. The source says:
(§1) The cytotoxicity of the Liposomal composition of Docetaxel (hereinafter referred to as “LD”) in vitro in a panel of human cancer cell lines, expected to be sensitive to Docetaxel and the effects were compared with the conventional, approved, marketed composition of Docetaxel, viz. Taxotere® (hereinafter referred to as “CD”). A solution of bulk Docetaxel in DMSO was taken as a positive control for the studies.

Data set [4] deals with DU145. The data set can be described thus: In vitro cytotoxicity, 72 hour MIT assay. The format is cell-based. Conditions: Homo sapiens, DU-145; Prostrate, DU145, 72 hour.
Source text: as §1

For data set [5], the system named is SKOV3. The data set can be described thus: In vitro cytotoxicity, 72 hour MIT assay. The format is cell-based. Particulars: Homo sapiens, SK-OV-3; Ovary, SKOV3, 72 hour.
Source text: as §1

Data set [6] concerns MDA MB 453. The data set can be described thus: In vitro cytotoxicity, 72 hour MIT assay. Particulars: Homo sapiens; Breast, MDA MB 453, 72 hour. The format is cell-based.
Source text: as §1

The conditions of data set [7]: cited from earlier work.
The conditions of data set [8]: Durr et al., U.S. Pat. No. 5,670,536; cited from earlier work.
The mark [9] stands for this setting: liposome system of Hager et al.

The term IC50 denotes the concentration that inhibits the measured activity by half. Higher therefore signals weaker potency in that assay.

Counter-ions that a name gives are not always drawn. Like-named read-outs stand apart in the source and are kept apart here.

With `CCCCCC(=O)OC(C(=O)OC1CC2(O)C(OC(=O)c3ccccc3)C3C4(OC(C)=O)COC4CC(O)C3(C)C(=O)C(OC(C)=O)C(=C1C)C2(C)C)C(NC(=O)c1ccccc1)c1ccccc1` (stereo not shown) [2′-caproyl Paclitaxel], the “entrapment in the liposomes” value in data set [1] was “about 70%”.
For the compound `CCCCCC(=O)OC1CC2OCC2(OC(C)=O)C2C(OC(=O)c3ccccc3)C3(O)CC(OC(=O)C(O)C(NC(=O)c4ccccc4)c4ccccc4)C(C)=C(C(OC(C)=O)C(=O)C12C)C3(C)C` (stereo not shown) [7-caproyl Paclitaxel], in data set [1], the “entrapment in the liposomes” value was “about 90%”.
For the compound `N.N.[Cl][Pt][Cl]` [Cisplatin], the figures for the “rate of release of the drug” value in data set [2] (39° C.) and in data set [2] (42° C.) were “hardly anything” and 30 to 95%, respectively.
Take `CC(=O)O[C@@]12CO[C@@H]1C[C@H](O)[C@@]1(C)C(=O)[C@H](O)C3=C(C)[C@@H](OC(=O)[C@H](O)[C@@H](NC(=O)OC(C)(C)C)c4ccccc4)C[C@@](O)([C@@H](OC(=O)c4ccccc4)[C@H]21)C3(C)C` [Docetaxel Solution in DMSO, Docetaxel]: the IC50 in data set [3] was less than 0.01 nM; in data set [4], 5.13 ± 1.28 nM; in data set [5] it was 9.87 ± 2.74 nM; in data set [6], 15.1 ± 2.3 nM. The “period for which liposomal compositions remain clear” value in data set [7] (Durr et al., U.S. Pat. No. 5,670,536, 20° C.) is on record as “more than eight weeks”. In addition, the particle diameter in data set [8] is 47 to 71 nm.
Turning to `COc1cccc2c1C(=O)c1c(O)c3c(c(O)c1C2=O)C[C@@](O)(C(=O)CO)C[C@@H]3O[C@H]1C[C@H](N)[C@H](O)[C@H](C)O1` [Doxorubicin hydrochloride], the encapsulation in data set [1] (liposome system of Hager et al., U.S. Pat. No. 5,556,637 and 5,741,517) is 78%.
Regarding `COc1cccc2c1C(=O)c1c(O)c3c(c(O)c1C2=O)C[C@@](O)(C(=O)CO)C[C@@H]3O[C@H]1C[C@H](N)[C@H](O)[C@H](C)O1` [Doxorubicin], the “drug entrapment in the liposomes” value in data set [1] (liposomes of Barenholz et al., U.S. Pat. No. 4,797,285 and 4,898,735) is listed as 85-90%. In addition, in data set [1] (thermosensitive liposomes of Needham et al., U.S. Pat. No. 6,200,598 and 6,726,925 B1), the “entrapment of the drug” value was “not more than 80%”. The drop in potency in data set [7] (lyophilized liposomal composition of Huang et al., WO 92/02208, in two weeks) is 10-15%.
As to Quinoline yellow, in data set [1] (setting [9]), the liposome-bound active principle was 1.38 mg/mL and the non-liposomal-bound active principle entry was “about 3.2 mg/ml”.
